Where a name gives a salt, the structure may show the parent alone.
Legend:
[1] = test system: NHDF (human dermal fibroblasts) scattering; test: NHDF spheroid evaluation (fibroblast scattering); format: cell-based; conditions: NHDF spheroids in collagen gel, no supplements, 24 hours
Experimental: Where the test compound was classified as an inhibitor or stimulator, a second screening process was performed. In the second screen, the test substance was thawed and 5 mM of the substance was diluted to a 10 fold concentrated working solution (100 μM) in endothelial cell basal medium. No supplements were used in the basal medium.
Instead of HUVEC, spheroids were prepared by pipetting 400 human dermal fibroblasts (NHDF) into each well of nonadhesive 96-well plates. Prior to use the NHDF were cultured according to the supplier's instructions (PromoCell, Heidelberg, Germany). The cells were allowed to aggregate overnight into spheroids (Korff and Augustin: J Cell Biol 143: 1341-52, 1998). After aggregation, 48 NHDF spheroids were harvested. Each of the harvested spheroids was seeded in 900 μl of methocel-collagen solution and pipetted into an individual well of a 24-well plate to allow collagen gel polymerization.
(§1) Thirty (30) minutes after seeding, the test substance was added. The working dilution (10 fold concentration) was utilized, 100 μl was pipetted on top of the polymerized collagen gel in each well. The plates were then incubated at 37° C. for 24 hours. At the end of the incubation period the plates were fixed by adding 1 ml paraformaldehyde (10%) to each well.
The NHDF spheroids were microscopically assayed for fibroblast scattering intensity. […] For exemplary results, see FIG. 1.

HUVEC sprouting [2] = test: Primary angiogenesis screen, HUVEC spheroid evaluation (EC sprouting); format: cell-based, human; conditions: HUVEC spheroids in collagen gel, VEGF-supplemented, 24 hours
Experimental: A test substance was selected for evaluation in angiogenesis screens. The test substance was synthesized or obtained as appropriate and stored at −20° C. in DMSO. Prior to use, the test substance was thawed and 5 mM of the substance was diluted to a 10 fold concentrated working solution (100 μM) in endothelial cell basal medium. The basal medium fraction was supplemented with 25 ng VEGF/100 μl for the stimulation of HUVEC sprouting.
The screening procedures were modified versions of those described by Korff and Augustin (J Cell Sci 112: 3249-58, 1999). By way of summary, spheroids were prepared by pipetting 400 human umbilical vein endothelial cells (HUVEC) into each well of nonadhesive 96-well plates. Prior to use the HUVEC were cultured according to the supplier's instructions (PromoCell, Heidelberg, Germany). The cells were allowed to aggregate overnight into spheroids (Korff and Augustin: J Cell Biol 143: 1341-52, 1998). After aggregation, 48 HUVEC spheriods were harvested. Each harvested spheroid was seeded in 900 μl of methocel-collagen solution and pipetted into an individual well of a 24-well plate to allow collagen gel polymerization.
as §1
The HUVEC spheriods were microscopically assayed for endothelial cell (EC) sprouting intensity. The degree of EC sprouting was classified into one of four groups by comparing the degree of sprouting to that observed in VEGF control cells. […] For exemplary results, see FIG. 1.

[3] = test system: angiogenesis induced by vascular permeability factor/vascular endothelial growth factor; conditions: Basu S et al., Nat Med 2001; cited from earlier work
HUVEC sprouting [4] = test: 3D angiogenesis assay of stimulators (HUVEC sprouting alone, with VEGF, with PTK787/ZK222584); format: cell-based, human; conditions: for HUVEC sprouting, compounds alone, compared to VEGF-induced sprouting: without addition of VEGF, 24 hours, basal sprouting subtracted, FIG. 22
Experimental: The HUVEC monolayer was treated for 6 hours with the compounds then the induced transcriptional changes, when compared to untreated HUVEC, were determined. The compounds were tested according to their ability to induce sprouting without addition of VEGF, in combination with VEGF and together with the VEGFR-2 inhibitor PTK787/ZK222584 (1 μM).

[5] = test system: tumor size and vessel density; test: Further studies with other CPT-1 inhibitors; conditions: CPT-1 inhibitors at 10 and 100 μm; FIGS. 37A-40
HUVEC sprouting [6] = test: Spheroid-based 3D angiogenesis assay (IC50, alone or with VEGFR-2 inhibitor); format: cell-based, human; conditions: determined in the spheroid-based 3D assay (FIG. 10); read-out: IC50 of the VEGFR-2 inhibitors
Excerpt: Therefore, the assay was applied to test compounds alone or in combination with a VEGFR-2 inhibitor to address changes in IC50. […] The VEGFR-2 inhibitor was applied at a concentration close to the IC50.

[7] = test system: Alexander cells (PLC/PRF/5) subcutaneous tumor; test: Hepato-Cellular Carcinoma Model (HCC) in vivo study, subcutaneous Alexander cells; set-up: species or system NMRI nu/nu mice; conditions: subcutaneous Alexander cell tumors in mice, about 21 days of treatment; FIGS. 28-30
Experimental: Monolayers of Alexander cells can be grown in 85% Dulbecco's Modified Eagle's Medium (DMEM), 15% Fetal Bovine Serum (FBS), 4 mM L-glutamine, 100 units penicillinG/ml, and 100 μg of streptomycin-sulfate/ml. The cells can be cultured in a humidified atmosphere of 90% air and 10% carbon dioxide at 37° C. Media may preferably be changed every 4 days.
Six to eight week old female NMRI^−nu/nu mice could be utilized. The Alexander cells can be implanted in the left flank region of the mice, for example, by injecting 4×10^7 cells in 0.2 ml aliquots into the subcutaneous space of the left flank using a 29 G needle syringe. After inoculation the appearing subcutaneous tumours can be measured by callipering and multiplying the distances of all three dimensions.
Therapy can be initiated after the tumor size has reached a volume of approximately 100 mm^3 (day 1 of the study), and continue for about 21 days.
As shown, Group 1 would serve as control, where the animals would receive no further treatment after injection of Alexander cells.
After approximately 21 days of treatment, mice could be sacrificed and tumors collected and optionally stored appropriately at −80° C. For histological examination of the tumor vasculature, cryosections of the tissues (thickness of 5-10 μm) can be taken. For visualization of the blood vessels, immunohistochemical staining for CD 31 (PECAM-1) can be performed, and vessels counted microscopically using a defined magnification (×200).

Fibroblast = test: Cell proliferation assay (crystal violet), Fibroblast; format: cell-based; conditions: 72 hours, OD 595 nm
Experimental: (§2) In order to further confirm the surprising results described above, the compounds were tested in a cell proliferation assay. Crystal violet was used to measure cell proliferation; this basic dye stains cell nuclei and provides a sensitive, rapid evaluation. Light absorption of unstained or destained cell layers is negligible, making it possible to perform cell number measurements in wells. Six cell types (HUVEC, HDMEC, SMC, Fibroblast, A375 and RENCA) were plated and treated with the compounds in a log2 titration for 72 hours. The optimal cell number for each cell type was determined and optical density (OD) was measured at 595 nm. Each data point was measured in quadruplicate. The assay was stopped after 72 hours and subsequently analyzed. The OD-value of the plated cells before addition of the compounds was subtracted from all OD-values obtained after treatment. The percentage in relation to control proliferation was then calculated. Negative values therefore represent a count of fewer cells than were plated. The IC50 is given below in Table 1. Results are shown as a percentage in relation to the control proliferation. The IC50 were calculated using GraphPad Prism software (GraphPad Software, Inc.). Perhexiline results are depicted graphically in FIGS. 4A-4C and Erythromycin results in FIGS. 5A-5C.

HUVEC = test: Cell proliferation assay (crystal violet), HUVEC; format: cell-based; conditions: Homo sapiens, 72 hours, OD 595 nm
Experimental: In order to further confirm the surprising results described above, the compounds were tested in a cell proliferation assay. Crystal violet was used to measure cell proliferation; this basic dye stains cell nuclei and provides a sensitive, rapid evaluation. Light absorption of unstained or destained cell layers is negligible, making it possible to perform cell number measurements in wells.
Six cell types (HUVEC, HDMEC, SMC, Fibroblast, A375 and RENCA) were plated and treated with the compounds in a log2 titration for 72 hours. The optimal cell number for each cell type was determined and optical density (OD) was measured at 595 nm. Each data point was measured in quadruplicate. The assay was stopped after 72 hours and subsequently analyzed.
The OD-value of the plated cells before addition of the compounds was subtracted from all OD-values obtained after treatment. The percentage in relation to control proliferation was then calculated. Negative values therefore represent a count of fewer cells than were plated. The IC50 is given below in Table 1. Results are shown as a percentage in relation to the control proliferation. The IC50 were calculated using GraphPad Prism software (GraphPad Software, Inc.). Perhexiline results are depicted graphically in FIGS. 4A-4C and Erythromycin results in FIGS. 5A-5C. […]

RENCA = test: Cell proliferation assay (crystal violet), RENCA; format: cell-based; conditions: 72 hours, OD 595 nm
Experimental: as §2

HDMEC = test: Cell proliferation assay (crystal violet), HDMEC; format: cell-based; conditions: 72 hours, OD 595 nm
Experimental: as §2

A375 = test: Cell proliferation assay (crystal violet), A375; format: cell-based; conditions: Homo sapiens, A-375, 72 hours, OD 595 nm
Experimental: as §2

B16F10 cells = test: Cell viability of B16F10 cells; format: cell-based; conditions: Mus musculus, B16-F10; after 24 and 48 hours incubation
Experimental: A cell viability assay based on cellular reduction of resazurin to the fluorescent product resorufin was performed. Viable cells can metabolize and reduce the dye, whereas dead cells rapidly lose the capacity to do so, making the increase in fluorescence directly proportional to the number of viable cells. The tested compounds were added in a log2 titration and viable cells were analyzed 24 hours after treatment. The fluorescence was determined at an excitation wavelength of 560 nm and an emission wavelength of 590 nm. The percentage of viable cells in relation to the untreated control proliferation was calculated. […] Perhexiline results are depicted graphically in FIGS. 6A-6C and Erythromycin results in FIGS. 7A-7C.
Through the two aforementioned assays it was determined that RENCA cells are more sensitive when treated with Perhexiline than the other cell types in the proliferation assay and in the viability assay. Therefore, the B16F10 cells were subsequently tested. The B16F10 tumor model, like the RENCA model, is an orthotopic tumor model.

SMC = test: Cell proliferation assay (crystal violet), SMC; format: cell-based; conditions: 72 hours, OD 595 nm
Experimental: as §2

CCN(CC)C(=O)N[C@H]1C=C2c3cccc4[nH]cc(c34)C[C@H]2N(C)C1 [Lisuride (S)(−)]
fibroblast scattering (invasion) effect [1]: no fibroblast invasion effect
EC sprouting intensity compared with VEGF control (HUVEC sprouting [2]): increased sprouting stimulation

CCc1cc(Cl)c(OC)c(C(=O)NC[C@@H]2CCCN2CC)c1O [Eticlopride]
effect on angiogenesis (literature) [3]: not effect on angiogenesis
HUVEC sprouting, compounds alone, compared to VEGF-induced sprouting (HUVEC sprouting [4]): stimulated sprouting in excess of the VEGF-induced sprouting

CC(C)(COP(=O)(O)OP(=O)(O)OC[C@H]1O[C@@H](n2cnc3c(N)ncnc32)[C@H](O)[C@@H]1OP(=O)(O)O)[C@@H](O)C(=O)NCCC(=O)NCCSC(=O)CC(=O)O [Malonyl-CoA]
effects on tumor size and vessel density (as seen with Perhexiline) [5]: not seen

Clc1ccc(Nc2nnc(Cc3ccncc3)c3ccccc23)cc1 [PTK787/ZK222584]
IC50 (HUVEC sprouting [6]): 0.1 µM
VEGF-induced sprouting (HUVEC sprouting [4]; at a concentration of 1 μM): completely prevents VEGF-induced sprouting
tumor growth compared to control [7]: reduced

C#C[C@]1(O)CC[C@H]2[C@@H]3CCC4=Cc5oncc5C[C@]4(C)[C@H]3CC[C@@]21C [Danazol]
fibroblast scattering (invasion) effect [1]: no fibroblast invasion effect
EC sprouting intensity compared with VEGF control (HUVEC sprouting [2]): increased sprouting stimulation

Clc1ccc(COC(Cn2ccnc2)c2ccc(Cl)cc2Cl)cc1.O=[N+]([O-])O (centres unmarked) [Econazole, 1-[2-{(4-chloro-phenyl)methoxy}-2-(2,4-dichlorophenyl)ethyl]-1H-imidazole mononitrate]
EC sprouting intensity compared with VEGF control (HUVEC sprouting [2]): angiogenesis stimulators

Clc1ccc(COC(Cn2ccnc2)c2ccc(Cl)cc2Cl)c(Cl)c1 (centres unmarked) [Miconazole]
fibroblast scattering (invasion) effect [1]: no fibroblast invasion effect
EC sprouting intensity compared with VEGF control (HUVEC sprouting [2]): increased sprouting stimulation

Clc1ccc(CSC(Cn2ccnc2)c2ccc(Cl)cc2Cl)cc1 (racemic) [Sulconazole, (±)-1-[2.4-dichloro-b-[(p-chlorobenzyl)-thio]-phenethyl]imidazole mononitrate]
EC sprouting intensity compared with VEGF control (HUVEC sprouting [2]): angiogenesis stimulators

CC(C)C[C@H]1C(=O)N2CCC[C@H]2[C@]2(O)O[C@](NC(=O)[C@@H]3C=C4c5cccc6[nH]c(Br)c(c56)C[C@H]4N(C)C3)(C(C)C)C(=O)N12 [Bromocriptine, Bromocriptine mesylate]
effect on angiogenesis (literature) [3]: prevent angiogenesis
EC sprouting intensity compared with VEGF control (HUVEC sprouting [2]): angiogenesis stimulator
HUVEC sprouting, compounds alone, compared to VEGF-induced sprouting (HUVEC sprouting [4]): stimulated sprouting in excess of the VEGF-induced sprouting

CC[C@H]1OC(=O)[C@H](C)[C@@H](O[C@H]2C[C@@](C)(OC)[C@@H](O)[C@H](C)O2)[C@H](C)[C@@H](O[C@@H]2O[C@H](C)C[C@H](N(C)C)[C@H]2O)[C@](C)(O)C[C@@H](C)C(=O)[C@H](C)[C@@H](O)[C@]1(C)O [Erythromycin]
IC50 (Fibroblast): > 100 µM
IC50 (HUVEC): > 100 µM
IC50 (RENCA): 56 µM
fibroblast scattering (invasion) effect [1]: no fibroblast invasion effect
IC50 (HDMEC): ~100 µM
EC sprouting intensity compared with VEGF control (HUVEC sprouting [2]): sprouting inhibition
IC50 (A375): > 100 µM
IC50 (B16F10 cells): 10 µM
IC50 (SMC): > 100 µM

CCOC(=O)[C@@]1(CCCCCCOc2ccc(Cl)cc2)CO1 [Etomoxir]
effects on tumor size and vessel density (as seen with Perhexiline) [5]: not seen

NCCc1ccc(O)c(O)c1 [Dopamine]
effect on angiogenesis (literature) [3]: prevent angiogenesis

COc1ccc(CN2CCNCC2)c(OC)c1OC [Trimetazidine dihydrochloride]
effects on tumor size and vessel density (as seen with Perhexiline) [5]: not seen

Reference: patent publication US20070142433A1, “Angiogenesis-affecting compounds and methods of use thereof” (priority 2004, published 2007)
